Experimental data from patent publication US11253526B2, “Nanostructured formulations for the delivery of silibinin and other active ingredients for treating ocular diseases” (DISTRETTO TECNOLOGICO SICILIA MICRO E NANO SISTEMI …, priority 2014, dated 2022).
Where “and” joins values, the source holds several entries; their conditions need not be identical. Equal values may be shown once. Values belong to the compound of their own block, whether it stands above or below them.

Experiments:
[1] = Degradation of curcumin in PBS and serum-free medium; assay type: physicochemical
cyclooxygenase 2 (COX-2) = assay: Western blot, COX-2 level in LPS-stimulated J774 cells; assay type: cell-based; conditions: LPS 10 μg/mL for 24 hours, pre-treatment
Procedure: (§1) In particular, J774 cells were stimulated with lipopolysaccharide (LPS) at a concentration of 10 μg/mL for 24 hours, stimulation with LPS induces the activation of inflammatory processes such as NFκB nuclear translocation and cytokine production, if not also release of nitrites and nitrosative stress. The cell viability was then evaluated following stimulation with LPS (10 μg/mL for 24 hours) and 2-hour pretreatment of the delivery systems being studied at the different concentrations. […] The anti-inflammatory activity of the delivery systems was then evaluated through the Western Blot analysis. […] The NFκB activation involves the production of proteins and inflammatory mediators such as cyclooxygenase 2 (COX-2) and inducible nitric oxide synthase (iNOS) and consequent increase in the production of nitrites.

[2] = tested on: Uveitis induced in Lewis rats; assay: Uveitis model induced by LPS endotoxin, topical administration; assay type: in vivo; conditions: 16 and 72 hours after LPS injection
Procedure: With the aim of verifying the effectiveness of the calixarene system loaded with the active ingredient to the eye site of interest, an experiment was conducted in vivo with an Uveitis model. Uveitis was induced in 160-180 g Lewis rats by single subcutaneous injection in the hind paw of 200 ìg of the LPS endotoxin from Salmonella Minnesota diluted in 0.2 mL PBS, pH 7.4. The control group received only 0.2 mL of PBS in the hind paw. […] The eyes were enucleated for histological and immunohistochemical analysis. The aqueous humor was also taken for protein dosing.

[3] = tested on: inducible nitric oxide synthase (iNOS); assay: Western blot, iNOS level in LPS-stimulated J774 cells; assay type: cell-based; conditions: LPS 10 μg/mL for 24 hours, pre-treatment
Procedure: as §1

PARP-1 protein = assay: Western blotting of PARP-1 after H2O2 and post-treatment; assay type: cell-based; conditions: samples treated with H2O2, post-treatment
Procedure: Lysates of retinal cells exposed to post-treatment with the INUC8PEG system, empty or conjugated with silibinin, were analyzed by western blotting for the expression of the PARP-1 protein, a poly (ADP-ribose) polymerase of 116 kDa involved in DNA repair in response to environmental stress (Calcium Overload Is A Critical Step In Programmed Necrosis Of Arpe-19 Cells Induced By High-Concentration H2O2 Guang-Yu Li et al., (2010) Biomedical And Environmental Sciences). In vivo and in vitro, PARP-1 is processed by Caspase 3 and Caspase 7 with the formation of a 24 kDa DNA-binding domain and an 89 kDa catalytic domain that participates in the apoptosis (Importance of Poly (ADP-ribose) Polymerase and Its Cleavage in Apoptosis F. J Oliver et al., (1998) J. Biol. Chem.).

ARPE-19 cells [4] = assay: LDH release, 20 h pretreatment then 50 μM FeSO4 insult; assay type: cell-based
Procedure: (§2) Then, the effects of the conjugated and empty system were tested using the compound FeSO4 as oxidative insult, with changes in the cellular redox status. Over 24 hours of incubation, the cells are pre-treated for 20 h and then exposed to insult with 50 μM FeSO4 for three hours [“Pretreatment” 20 h drug+3 h insult]. The viability test conducted to evaluate the toxicity and the ability of protection from damage of the carrier in question is to assess the release of LDH in the culture medium. […] In subsequent experiments, the effects of post-treatment with calixarene based compounds were tested. Therefore, cells were treated with 50 μM FeSO4 for 5 hours and incubated for 20 hours with the various compounds.

[5] = cited from earlier work
cathepsin D = assay: Western blot of cathepsin D after FeSO4 insult and post-treatment; assay type: cell-based
Text: Cathepsin D is an intracellular aspartyl protease, synthesized in the endoplasmic reticulum as pre-pro-enzyme that is processed up to generate active fragments. According to the cellular environment in which it resides, it can induce or inhibit apoptosis through different mechanisms. The 48 kDa fragment is an active intermediate form from which two additional active fragments are generated; therefore, its reduction is associated with the activation of the proteolytic process, vice versa its increase is indicative of an inhibition of apoptosis. In the presence of oxidative stress, the activation of cathepsin D may activate caspase 8 which in turn activates caspase 3, leading to cell death (Regulatory role of cathepsin D in apoptosis, A. Minarowska et al., (2007) Folia Histochemica et Cytobiologica) (Caspase-8-mediated apoptosis induced by oxidative stress is independent of the intrinsic pathway and dependent on cathepsins H. K. Baumgartner et al., (2007) Am J Physiol Gastrointest Liver Physiol.).

ARPE-19 cells [6] = assay: LDH release, 50 μM FeSO4 for 5 hours then 20 h post-treatment; assay type: cell-based; conditions: then 20 hours with compound
Procedure: as §2

[7] = Zeta potential measurement; assay type: physicochemical; conditions: in PBS, pH 7.4; calixarene nanoaggregates
Procedure: The zeta potential was measured according to the principles of the laser doppler velocimetry and of the light scattering analysis (M3-PALS technique) using a Zetasizer Nano ZSP (Malvern) with a He—Ne laser, power=4.0 mW, wavelength=633 nm.
(§3) The size distribution of micelles was determined through dynamic light scattering measurements using the Malvern Zetasizer Nano ZS. […] The aqueous solutions of micelles (2 mg/mL) were analyzed after filtration through cellulose membrane filters with 5 μm cut off. The average hydrodynamic diameter and the polydispersity index (PDI) were obtained using cumulative analyses of the correlation function. The zeta potential (mV) was calculated by the electrophoretic mobility and using the Smoluchowsky relation, assuming that K·a>>1 (where K and a are the Debye-Hückel parameter and the particle radius, respectively).
(§4) The average diameter, polydispersity index (PDI) and zeta potential of calixarene nanoparticles loaded and not with silibinin were measured using a Zetasizer Nano ZS-90 (Malvern Instrument), the reading was made at an angle of 90° with respect to the incident ray and analyzed in triplicate.

SIRC corneal cells = assay: Cytotoxicity on SIRC corneal cells; assay type: cell-based; conditions: SIRC corneal (epithelial) cells
Procedure: (§5) The colloidal solutions of calixarene 1, calixarene loaded with active ingredient and active ingredient alone were tested for cytotoxicity: SIRC corneal cells (FIG. 11), J774 macrophages (FIG. 12) and ARPE retinal cells.

ARPE-19 retinal cells = assay: Biocompatibility / toxicity on ARPE-19 retinal cells; assay type: cell-based
Procedure: as §2, §5

J774 macrophages = assay: Cytotoxicity on J774 macrophages; assay type: cell-based
Procedure: as §5

[8] = Average hydrodynamic diameter and polydispersity index by DLS / photo-correlation spectroscopy; assay type: physicochemical; conditions: DLS in PBS, pH 7.4; calixarene nanoaggregates
Procedure: The average diameter and the polydispersity index (PDI) of the SLN-A systems prepared were determined by photo-correlation spectroscopy (PCS) using a Zetasizer Nano ZSP (Malvern Instrument).
The average diameter and the polydispersity index (PDI) of the NLC-B systems coated with INU-EDA and chitosan prepared were determined by photo-correlation spectroscopy (PCS) using a Zetasizer Nano ZSP (Malvern Instrument).
as §3, §4

J774 cells = assay: Viability / anti-inflammatory activity in J774 cells stimulated with LPS; assay type: cell-based
Procedure: as §1

[9] = 20 h incubation, cells not exposed to FeSO4
[10] = pre-treated 20 h, then FeSO4 (50 μM)

Compound: COc1cc(/C=C/C(=O)CC(=O)/C=C/c2ccc(O)c(OC)c2)ccc1O [curcumin, diferuloylmethane]
degradation ([1]; in 30 min, 0.1 M PBS and serum-free medium): 80-90% and 90%
levels of COX-2 (cyclooxygenase 2 (COX-2)): reduces significantly and in a dose-dependent manner
ocular inflammation / histologic damage [2]: significantly decreased the histologic damage
protein levels in the aqueous humor [2]: most effectively determined the reduction of proteins
levels of iNOS [3]: reduces significantly and in a dose-dependent manner

Compound: Silibinin [reference compound]
ocular inflammation / histologic damage [2]: decreased but not significant ocular inflammation
protein levels in the aqueous humor [2]: a trend but not significant
inhibition of apoptosis induced by oxidative damage (PARP-1 protein): reduces the apoptotic process, however with less efficiency than the conjugated carrier
release of LDH (ARPE-19 cells [4]; [9]): reduces the release of LDH
release of LDH (ARPE-19 cells [4]; [10]): an effect not observed
solubility in water [5]: 430 µg/mL
expression levels of cathepsin D (48 kDa band) (cathepsin D): increases the expression levels of cathepsin D
protection against insult (LDH release) (ARPE-19 cells [6]): individually able to protect from the redox status alteration

protective effect towards curcumin ([1]; PBS as a solvent): protects curcumin
Potential ζ [7]: 24 mV
PDI [8]: 0.29
Z-average [8]: 44.3 nm
Compound: CCCCCCCCCCCCOc1c2cc(C[N+](C)(C)CCO)cc1Cc1cc(C[N+](C)(C)CCO)cc(c1OCCCCCCCCCCCC)Cc1cc(C[N+](C)(C)CCO)cc(c1OCCCCCCCCCCCC)Cc1cc(C[N+](C)(C)CCO)cc(c1OCCCCCCCCCCCC)C2 [compound 1]
biocompatibility (SIRC corneal cells): good biocompatibility
biocompatibility (ARPE-19 retinal cells; ARPE-19 / ARPE retinal cells): good biocompatibility
toxicity (ARPE-19 retinal cells; concentrations 0.01-1 μM, incubated for 20 hours): caused no toxicity
levels of COX-2 (cyclooxygenase 2 (COX-2)): reduces significantly and in a dose-dependent manner
ocular inflammation / histologic damage [2]: the degree of inflammation was not reduced
protein levels in the aqueous humor [2]: did not result in a reduction in the protein levels
release of LDH (ARPE-19 cells [4]; [9]): do not significantly change the release of LDH
release of LDH (ARPE-19 cells [4]; [10]): an effect not observed
levels of iNOS [3]: reduces significantly and in a dose-dependent manner
biocompatibility (J774 macrophages): good biocompatibility
expression levels of cathepsin D (48 kDa band) (cathepsin D): increases the expression levels of cathepsin D
cell viability following stimulation with LPS (J774 cells; LPS 10 μg/mL for 24 hours, 2-hour pretreatment): able to restore the cell viability
anti-inflammatory activity, rank order (J774 cells; macrophages subjected to inflammatory stress with LPS): calixarene loaded with curcumin>>calixarene>>curcumin alone
protection against insult (LDH release) (ARPE-19 cells [6]): individually able to protect from the redox status alteration
